Experimental data taken from ChEMBL document CHEMBL5579851, “Synthesis and antifungal evaluation of novel triazole derivatives bearing a pyrazole-methoxyl moiety” (Eur J Med Chem, 2024).
Converted amounts (≈) assume the structure as drawn. The source made the active and inactive calls. The calls are words filed in the database; no cut-off is given here.

Experiments:
[Candida] auris [1] = Antifungal activity against fluconazole-resistant Candida auris 891 assessed as inhibition of fungal growth incubated for 48 hrs by CLSI based broth microdilution assay; type: functional; settings: Candidozyma auris
Saccharomyces cerevisiae [2] = test: Antifungal activity against recombinant Saccharomyces cerevisiae Y2766 overexpressing CauCdr1 assessed as inhibition of fungal growth incubated for 48 hrs by CLSI based broth microdilution assay; type: functional
Cell membrane = test: Induction of membrane permeabilization in Candida albicans SC5314 assessed as increase in fluorescence at 0.0625 to 0.5 ug/ml incubated for 8 hrs by propidium iodide staining based fluorescence microscopic analysis; settings: dose 0.0625-0.5 µg/ml
Candida albicans [3] = test: Antifungal activity against Candida albicans SC5314 assessed as inhibition of fungal growth at 0.125 ug/ml after 48 hrs by TECAN plate reader analysis relative to control; type: functional
Candida albicans [4] = test: Antibiofilm activity against Candida albicans SC5314 assessed as inhibition of biofilm formation at 64 ug/mL incubated for 24 hrs by XTT assay relative to control; type: functional
Cryptococcus neoformans [5] = test: Antifungal activity against Cryptococcus neoformans 32609 assessed as inhibition of fungal growth incubated for 72 hrs by CLSI based broth microdilution assay; type: functional
Candida parapsilosis [6] = test: Antifungal activity against Candida parapsilosis 22019 assessed as inhibition of fungal growth incubated for 48 hrs by CLSI based broth microdilution assay; type: functional; settings: Lodderomyces parapsilosis
Saccharomyces cerevisiae [7] = test: Antifungal activity against recombinant Saccharomyces cerevisiae Y2768 overexpressing CauErg11 T132F mutant assessed as inhibition of fungal growth incubated for 48 hrs by CLSI based broth microdilution assay; type: functional
Pichia kudriavzevii = test: Antifungal activity against Candida krusei 4996 assessed as inhibition of fungal growth incubated for 48 hrs by CLSI based broth microdilution assay; type: functional
Saccharomyces cerevisiae [8] = test: Antifungal activity against recombinant Saccharomyces cerevisiae Y2301 overexpressing ScErg11 Y140F mutant assessed as inhibition of fungal growth incubated for 48 hrs by CLSI based broth microdilution assay; type: functional
[Candida] auris [9] = Antifungal activity against fluconazole-resistant Candida auris 918 assessed as inhibition of fungal growth incubated for 48 hrs by CLSI based broth microdilution assay; type: functional; settings: Candidozyma auris
Cryptococcus neoformans [10] = test: Antifungal activity against Cryptococcus neoformans 32609 assessed as inhibition of fungal growth at 0.125 ug/ml measured up to 48 hrs by TECAN plate reader analysis; type: functional, organism-based; settings: dose 0.125 µg/ml
Candida tropicalis = test: Potency index, ratio of ravuconazole MIC to test compound MIC for antifungal activity against Candida tropicalis 8915 assessed as inhibition of fungal growth incubated for 48 hrs by CLSI based broth microdilution assay; type: functional
[11] = biological target: Lanosterol 14-alpha demethylase (Candida albicans (strain SC5314 / ATCC MYA-2876) (Yeast), UniProt P10613); test: Inhibition of CYP51 in Candida albicans SC5314 assessed as lanosterol level at 0.0625 ug/ml after 8 hrs by GC-MS analysis (reference value: 5.9 %); parameters: scale not given: the % may be the effect or the level left; settings: at 0.0625 µg/mL
Lanosterol 14-alpha demethylase, sequence (P10613 whole entry): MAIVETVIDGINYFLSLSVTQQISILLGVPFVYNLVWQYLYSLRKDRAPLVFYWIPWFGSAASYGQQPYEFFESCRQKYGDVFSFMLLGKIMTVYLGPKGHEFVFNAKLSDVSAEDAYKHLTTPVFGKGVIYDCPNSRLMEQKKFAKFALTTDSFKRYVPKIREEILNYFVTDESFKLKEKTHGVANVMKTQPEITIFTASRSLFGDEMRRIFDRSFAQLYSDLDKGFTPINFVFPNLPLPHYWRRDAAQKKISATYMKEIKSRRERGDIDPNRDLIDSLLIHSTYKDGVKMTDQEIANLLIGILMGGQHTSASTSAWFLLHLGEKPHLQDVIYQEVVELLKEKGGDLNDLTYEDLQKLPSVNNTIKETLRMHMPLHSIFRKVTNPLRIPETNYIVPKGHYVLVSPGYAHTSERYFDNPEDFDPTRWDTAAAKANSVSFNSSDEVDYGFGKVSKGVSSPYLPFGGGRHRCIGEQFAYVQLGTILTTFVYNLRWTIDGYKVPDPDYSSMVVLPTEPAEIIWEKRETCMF

Candida albicans [12] = test: Antibiofilm activity against Candida albicans SC5314 assessed as increase in matured biofilm distruption incubated for 24 hrs by XTT assay; type: functional, organism-based; settings: dose 0.25-64 µg/ml
Candida albicans [13] = test: Antifungal activity against fluconazole-resistant Candida albicans 901 assessed as inhibition of fungal growth incubated for 48 hrs by CLSI based broth microdilution assay; type: functional
Candida albicans [14] = test: Antifungal activity against fluconazole-resistant Candida albicans 904 assessed as inhibition of fungal growth incubated for 48 hrs by CLSI based broth microdilution assay; type: functional
Saccharomyces cerevisiae [15] = test: Antifungal activity against recombinant Saccharomyces cerevisiae Y2459 overexpressing CaErg11/CaCpr assessed as inhibition of fungal growth incubated for 48 hrs by CLSI based broth microdilution assay; type: functional
Saccharomyces cerevisiae [16] = test: Antifungal activity against recombinant Saccharomyces cerevisiae Y2462 overexpressing ScErg11/ScNcp1 assessed as inhibition of fungal growth incubated for 48 hrs by CLSI based broth microdilution assay; type: functional
Candida albicans [17] = test: Antibiofilm activity against Candida albicans SC5314 assessed as increase in matured biofilm distruption at 64 ug/ml incubated for 24 hrs by XTT assay relative to control; type: functional; settings: dose 64 µg/ml
Saccharomyces cerevisiae [18] = test: Antifungal activity against recombinant Saccharomyces cerevisiae Y525 overexpressing CaMdr1 assessed as inhibition of fungal growth incubated for 48 hrs by CLSI based broth microdilution assay; type: functional
Nakaseomyces glabratus [19] = test: Antifungal activity against Candida glabrata 537 assessed as inhibition of fungal growth incubated for 48 hrs by CLSI based broth microdilution assay; type: functional
Saccharomyces cerevisiae [20] = test: Antifungal activity against recombinant Saccharomyces cerevisiae Y2716 overexpressing CpErg11 Y132F mutant/ CpCpr assessed as inhibition of fungal growth incubated for 48 hrs by CLSI based broth microdilution assay; type: functional
Candida albicans [21] = test: Antifungal activity against Candida albicans SC5314 assessed as inhibition of hyphae formation at 0.625 ug/ml after 3 hrs by inverted microscopic analysis relative to control; type: functional
Saccharomyces cerevisiae [22] = test: Antifungal activity against recombinant Saccharomyces cerevisiae Y2374 overexpressing CgErg11 assessed as inhibition of fungal growth incubated for 48 hrs by CLSI based broth microdilution assay; type: functional
[23] = Cytotoxicity against HUVEC cells assessed as cell viability at 128 ug/ml incubated for 24 hrs by CCK-8 assay relative to control; type: toxicity, cell-based; settings: human, at 128 µg/mL, read-out: Activity
Saccharomyces cerevisiae [24] = test: Antifungal activity against recombinant Saccharomyces cerevisiae Y2767 overexpressing CauErg11 assessed as inhibition of fungal growth incubated for 48 hrs by CLSI based broth microdilution assay; type: functional
Saccharomyces cerevisiae [25] = test: Antifungal activity against recombinant Saccharomyces cerevisiae Y2765 overexpressing CauMdr1 assessed as inhibition of fungal growth incubated for 48 hrs by CLSI based broth microdilution assay; type: functional
Candida parapsilosis [26] = test: Antifungal activity against Candida parapsilosis 22019 assessed as inhibition of fungal growth at 0.125 ug/ml measured up to 48 hrs by TECAN plate reader analysis; type: functional, organism-based; settings: dose 0.125 µg/ml
Saccharomyces cerevisiae [27] = test: Antifungal activity against recombinant Saccharomyces cerevisiae Y2300 overexpressing ScErg11 assessed as inhibition of fungal growth incubated for 48 hrs by CLSI based broth microdilution assay; type: functional
Saccharomyces cerevisiae [28] = test: Antifungal activity against recombinant Saccharomyces cerevisiae Y2721 overexpressing CpErg11/CpCpr assessed as inhibition of fungal growth incubated for 48 hrs by CLSI based broth microdilution assay; type: functional
Nakaseomyces glabratus [29] = test: Antifungal activity against Candida glabrata 537 assessed as inhibition of fungal growth at 2 ug/ml measured up to 48 hrs by TECAN plate reader analysis; type: functional, organism-based; settings: dose 2.0 µg/ml
Saccharomyces cerevisiae [30] = test: Selectivity index, ratio of MIC for antifungal activity against recombinant Saccharomyces cerevisiae Y525 overexpressing CaMdr1 to MIC for antifungal activity against recombinant Saccharomyces cerevisiae Y2411 overexpressing ScErg11; type: functional
Saccharomyces cerevisiae [31] = test: Antifungal activity against recombinant Saccharomyces cerevisiae Y2769 overexpressing CauErg11 K143R mutant assessed as inhibition of fungal growth incubated for 48 hrs by CLSI based broth microdilution assay; type: functional
Saccharomyces cerevisiae [32] = test: Antifungal activity against recombinant Saccharomyces cerevisiae Y2513 overexpressing ScErg11 Y140H mutant assessed as inhibition of fungal growth incubated for 48 hrs by CLSI based broth microdilution assay; type: functional

C[C@@H](OCc1ccn(Cc2ccc(Cl)cc2)n1)[C@](O)(Cn1cncn1)c1ccc(F)cc1F
MIC ([Candida] auris [1]): 8 µg/mL (≈ 16.9 µM) | MIC (Saccharomyces cerevisiae [2]): 2 µg/mL | Activity (Cell membrane): Active | inhibition at 0.125 µg/mL (Candida albicans [3]): 100% | inhibition at 64 µg/mL (Candida albicans [4]): > 55% | MIC (Cryptococcus neoformans [5]): ≤ 0.125 µg/mL | MIC (Candida parapsilosis [6]): 0.25 µg/mL (≈ 0.528 µM) | MIC (Saccharomyces cerevisiae [7]): 0.0313 µg/mL | MIC (Pichia kudriavzevii): 2 µg/mL (≈ 4.22 µM) | MIC (Saccharomyces cerevisiae [8]): 0.008 µg/mL | MIC ([Candida] auris [9]): 8 µg/mL (≈ 16.9 µM) | inhibition (Cryptococcus neoformans [10]): Active | Ratio (Candida tropicalis): 32 | Activity [11]: > 25% | Activity (Candida albicans [12]): Dose-Dependent Effect | MIC (Candida albicans [13]): 16 µg/mL (≈ 33.8 µM) | MIC (Candida albicans [14]): 8 µg/mL (≈ 16.9 µM) | MIC (Saccharomyces cerevisiae [15]): 0.008 µg/mL | MIC (Saccharomyces cerevisiae [16]): 0.0313 µg/mL | Activity (Candida albicans [17]): 57.3% | MIC (Saccharomyces cerevisiae [18]): 0.125 µg/mL | MIC (Nakaseomyces glabratus [19]): ≤ 0.125 µg/mL | MIC (Saccharomyces cerevisiae [20]): 0.016 µg/mL | inhibition at 0.625 µg/mL (Candida albicans [21]): 100% | MIC (Saccharomyces cerevisiae [22]): 0.008 µg/mL | viability at 24 h, 128 ug/ml [23]: 64.5% | MIC (Saccharomyces cerevisiae [24]): 0.008 µg/mL | MIC (Saccharomyces cerevisiae [25]): 0.063 µg/mL | inhibition (Candida parapsilosis [26]): Active | MIC (Saccharomyces cerevisiae [27]): 0.0313 µg/mL | MIC (Saccharomyces cerevisiae [28]): 0.016 µg/mL | inhibition (Nakaseomyces glabratus [29]): inactive | Ratio (Saccharomyces cerevisiae [30]): 16 | MIC (Saccharomyces cerevisiae [31]): 0.008 µg/mL | MIC (Saccharomyces cerevisiae [32]): 0.008 µg/mL
